Consider five compounds from patent publication US4935449A, “N-2,3-butadienyl tri- and tetraaminoalkane derivatives” (Merrell Dow Pharmaceuticals Inc., priority 1988, dated 1990).

Experiment [1] has as its system PAO. The experiment can be described thus: PAO activity ex vivo in the liver of mice dosed i.p. 24 hours before. The conditions noted are these: mouse liver, Dose 1.0 mg/kg i.p., control 18.7. The source says:
MEASUREMENT OF PAO ACTIVITIES IN MOUSE TISSUES
Chim. Biophys. Acta 38: 69-76.

Experiment [2] deals with Rat Liver Pao (Rattus norvegicus, UniProt A0A8I6AEP5). The experiment can be described thus: In vitro inhibition of partially purified rat liver polyamine oxidase (PAO). Type of experiment: biochemical. Here is the method:
Polyamine Oxidase Inhibition^1
Rat liver polyamine oxidase was purified by the procedure of Holtta, E.
step. Ki and .tau.50 were determined using the partially

The subject of experiment [3] is Plasmodia spp. The conditions noted are these: liver of infected mice; cited from earlier work.
For experiment [4], the system named is P. gallinaceum. The conditions noted are these: P. gallinaceum in chickens; cited from earlier work.
Experiment [5] relates to Eimeria spp. The conditions noted are these: cited from earlier work.
Experiment [6] deals with T. b. brucei. The conditions noted are these: in mice; cited from earlier work.
In experiment [7] the test system is P. berghei. The conditions noted are these: cited from earlier work.
Experiment [8] concerns Plasmodia spp. The conditions noted are these: cited from earlier work.
In experiment [9] the test system is Pneumocystis carinii. The conditions noted are these: cited from earlier work.
Experiment [10] concerns ODC. The conditions noted are these: cited from earlier work.
Experiment [11] has as its system Plasmodia spp. The conditions noted are these: in culture in vitro; cited from earlier work.
Experiment [12] relates to ODC and AdoMetDC. The conditions noted are these: cited from earlier work.
For experiment [13], the system named is natural polyamines. The conditions noted are these: exposure of cells; cited from earlier work.
For experiment [14], the system named is L1210 cells. The conditions noted are these: cited from earlier work.

Rat Liver Pao, sequence (A0A8I6AEP5 62-564): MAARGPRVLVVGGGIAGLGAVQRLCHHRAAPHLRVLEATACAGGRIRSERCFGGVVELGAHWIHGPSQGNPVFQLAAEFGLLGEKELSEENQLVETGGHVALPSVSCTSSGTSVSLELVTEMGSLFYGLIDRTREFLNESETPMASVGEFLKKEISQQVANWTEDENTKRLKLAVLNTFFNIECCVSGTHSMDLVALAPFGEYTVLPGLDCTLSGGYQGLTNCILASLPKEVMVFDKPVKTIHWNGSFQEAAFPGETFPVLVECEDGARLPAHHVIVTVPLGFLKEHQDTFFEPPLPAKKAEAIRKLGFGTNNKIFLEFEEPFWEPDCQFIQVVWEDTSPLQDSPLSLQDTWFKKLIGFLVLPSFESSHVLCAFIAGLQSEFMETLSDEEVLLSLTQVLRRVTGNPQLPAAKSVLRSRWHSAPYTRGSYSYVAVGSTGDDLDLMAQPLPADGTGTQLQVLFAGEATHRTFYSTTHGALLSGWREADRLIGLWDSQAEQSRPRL

Regarding `C=C=CCNCCCNCCCNCC=C=C` [Compound 46], the “PAO Activity” value in experiment [1] stood at 1.0 p/mol/min/mg protein. Besides, the “.tau.50” value in experiment [2] turned out to be 4.0 min.
In the same order, the values of `C=C=CCNCCCNCCCCCCCCNCCCNCC=C=C` [Compound 51] are 4.1 p/mol/min/mg protein and 2.0 min.
Take `NCCC[C@](N)(C(=O)O)C(F)F` [DFMO, α-difluoromethylornithine]: in [3], the “exoerythrocytic schizogony in the liver” value was “inhibit the cycle in the liver of infected mice”. Further, the “curative effect on erythrocytic forms of malaria in vivo” value in [4] and in experiment [7] (P. berghei in mice) was “no curative effects” each time. In addition, the “sensitivity of Eimeria spp.” value in experiment [5] is “sensitive”. Moreover, the “cure of acute infections of T. b. brucei” value in [6] is recorded as “totally cure acute infections”. Besides, the “parasitemia in P. berghei infections” value in experiment [7] (P. berghei infections) is recorded as “significantly reduce parasitemia”. For the same compound, the “sporogonous cycle in the mosquito vector” value in experiment [8] was “completely inhibit the sporogonous cycle in the mosquito vector”. The “sensitivity of Pneumocystis carinii” value in [9] is “sensitive”. Besides, in [10], the “inhibition of ODC” value was “inhibits ODC”. Moreover, the “erythrocytic replication (schizogony)” value in experiment [11] is on record as “block erythrocytic replication (schizogony) in culture in vitro”.
As for `CCNCCCCNCCCNCC` [N^1,N^8 -bis(ethyl)spermidine], the “repression of ODC and AdoMetDC” value in [12] is “mimic the action of their parent polyamines in the repression of ODC and AdoMetDC”. For the same compound, in experiment [13], the “depletion of the natural polyamines” value is listed as “leads to the depletion of the natural polyamines”. Also, the “support of growth of L1210 cells” value in [14] is listed as “will not support growth of L1210 cells”.
As to `CCNCCCNCCCCNCCCNCC` [N^1,N^12 -bis(ethyl)spermine], in experiment [12], the “repression of ODC and AdoMetDC” value is “mimic the action of their parent polyamines in the repression of ODC and AdoMetDC”. Moreover, in experiment [13], the “depletion of the natural polyamines” value was “leads to the depletion of the natural polyamines”. Further, in [14], the “support of growth of L1210 cells” value is recorded as “will not support growth of L1210 cells”.
